Experimental data published in ChEMBL document CHEMBL1135954, “Opioid activity of 4-imidazolidinone positional analogues of Leu-Enkephalin” (Bioorg Med Chem Lett, 2002).
Peptide text beside a SMILES is read from it. * marks the point of attachment. X1 = CC(C)C[C@H]1C(=O)NCN1*

How the values were obtained:
[1] = target: Kappa-type opioid receptor (Rattus norvegicus, UniProt P34975); experiment: Binding affinity towards Opioid receptor kappa 1 was determined using U69,593 as the radioligand.
[2] = target: Mu-type opioid receptor (Rattus norvegicus, UniProt P33535)
Sequence of Mu-type opioid receptor (P33535 whole entry): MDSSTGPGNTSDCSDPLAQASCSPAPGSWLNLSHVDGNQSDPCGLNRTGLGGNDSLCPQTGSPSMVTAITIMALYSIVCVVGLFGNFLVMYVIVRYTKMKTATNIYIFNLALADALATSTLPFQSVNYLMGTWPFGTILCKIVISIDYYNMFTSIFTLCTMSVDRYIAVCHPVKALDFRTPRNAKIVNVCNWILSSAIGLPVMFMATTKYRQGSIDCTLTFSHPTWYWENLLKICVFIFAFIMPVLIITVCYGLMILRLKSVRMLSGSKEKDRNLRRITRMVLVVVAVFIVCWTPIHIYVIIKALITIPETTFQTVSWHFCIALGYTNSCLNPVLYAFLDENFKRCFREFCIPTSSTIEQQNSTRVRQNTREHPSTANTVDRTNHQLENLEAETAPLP

Sequence of Kappa-type opioid receptor (P34975 whole entry): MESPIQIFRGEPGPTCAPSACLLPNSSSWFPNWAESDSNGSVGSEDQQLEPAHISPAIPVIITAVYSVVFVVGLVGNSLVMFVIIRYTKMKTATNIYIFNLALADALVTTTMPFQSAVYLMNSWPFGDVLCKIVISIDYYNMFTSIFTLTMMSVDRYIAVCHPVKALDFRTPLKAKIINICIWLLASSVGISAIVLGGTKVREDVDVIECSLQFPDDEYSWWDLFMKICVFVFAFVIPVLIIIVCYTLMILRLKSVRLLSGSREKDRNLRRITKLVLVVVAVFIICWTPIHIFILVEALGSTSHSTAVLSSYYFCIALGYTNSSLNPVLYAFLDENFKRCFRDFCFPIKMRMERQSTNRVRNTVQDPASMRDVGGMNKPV

SMILES	Ki [1] [nM]	Ki [2] [nM]
CC(C)C[C@H](NC(=O)[C@H](Cc1ccccc1)NC(=O)CN1CN(C(=O)[C@@H](N)Cc2ccc(O)cc2)CC1=O)C(N)=O	> 10000	92
CC(C)C[C@H](NC(=O)[C@H](Cc1ccccc1)NC(=O)CNC(=O)CN1CN[C@@H](Cc2ccc(O)cc2)C1=O)C(N)=O	> 10000	547
CC(C)C[C@H](NC(=O)[C@H](Cc1ccccc1)N1CN(C(=O)CNC(=O)[C@@H](N)Cc2ccc(O)cc2)CC1=O)C(N)=O	> 10000	236
CC(C)C[C@@H](C(N)=O)N(C)C(=O)[C@H](Cc1ccccc1)NC(=O)CNC(=O)CNC(=O)[C@@H](N)Cc1ccc(O)cc1	2230	46
CC(C)C[C@H]1C(=O)NCN1C(=O)[C@H](Cc1ccccc1)NC(=O)CNC(=O)CNC(=O)[C@@H](N)Cc1ccc(O)cc1 (H-YGGF-X1)	2890	4
CNC(=O)[C@H](CC(C)C)NC(=O)[C@H](Cc1ccccc1)NC(=O)CNC(=O)CNC(=O)[C@@H](N)Cc1ccc(O)cc1	1370	145
CC(C)C[C@@H](C(N)=O)N1CN(C(=O)CNC(=O)CNC(=O)[C@@H](N)Cc2ccc(O)cc2)[C@@H](Cc2ccccc2)C1=O	> 10000	2560
CNC(=O)[C@H](CC(C)C)N(C)C(=O)[C@H](Cc1ccccc1)NC(=O)CNC(=O)CNC(=O)[C@@H](N)Cc1ccc(O)cc1	1690	28
